Measured values as given in paper PMC6888128, “Biosynthesis of Phenylamide Phytoalexins in Pathogen-Infected Barley” (International Journal of Molecular Sciences, 2019).
Like-named read-outs stand apart in the source and are kept apart here.

How the values were obtained:
HvTHT8 = system: T1, HvTHT8; assay: LC-MS/MS (MRM) of amide product; type: biochemical, Hordeum vulgare; details: 100 mM Tris-HCl pH 8.0, 35 °C, read-out: HvTHT8 / K m
T1 construct: His-GST-tagged (pCold GST), E. coli BL21, TALON-purified; differs from HvTHT7 only at residue 166 (His/Arg)
Text: LC-MS/MS (MRM) of amide product on HvTHT8

HvTHT7 = system: T2, HvTHT7; assay: LC-MS/MS (MRM) of amide product; type: biochemical, Hordeum vulgare; details: 100 mM Tris-HCl pH 8.0, 35 °C, read-out: HvTHT7 / K m
T2 construct: His-GST-tagged (pCold GST), E. coli BL21, TALON-purified; HvTHT7 plasmid made by site-directed mutagenesis of HvTHT8; differs from HvTHT8 only at residue 166 (His/Arg)
Text: LC-MS/MS (MRM) of amide product on HvTHT7

[1] = acyl acceptor, 200 µM cinnamoyl-CoA

Km (HvTHT8; acyl donor, 1 mM tryptamine) [µM] | Km (HvTHT7; acyl donor, 1 mM tryptamine) [µM] | SMILES | Km (HvTHT8; [1]) [µM] | Km (HvTHT7; [1]) [µM]
– | – | NCC(=O)c1c[nH]c2ccccc12 [8-Oxotryptamine] | 54.9 | 53.1
62.1 | 64.2 | CC(C)(COP(=O)(O)OP(=O)(O)OC[C@H]1O[C@@H](n2cnc3c(N)ncnc32)[C@H](O)[C@@H]1OP(=O)(O)O)[C@@H](O)C(=O)NCCC(=O)NCCSC(=O)/C=C/c1ccccc1 [Cinnamoyl-CoA] | – | –
35.5 | 39.2 | CC(C)(COP(=O)(O)OP(=O)(O)OC[C@H]1O[C@@H](n2cnc3c(N)ncnc32)[C@H](O)[C@@H]1OP(=O)(O)O)[C@@H](O)C(=O)NCCC(=O)NCCSC(=O)/C=C/c1ccc(O)cc1 [Coumaroyl-CoA] | – | –
36.7 | 32.6 | COc1cc(/C=C/C(=O)SCCNC(=O)CCNC(=O)[C@H](O)C(C)(C)COP(=O)(O)OP(=O)(O)OC[C@H]2O[C@@H](n3cnc4c(N)ncnc43)[C@H](O)[C@@H]2OP(=O)(O)O)ccc1O [Feruloyl-CoA] | – | –
– | – | NCc1c[nH]c2ccccc12 [IMA, (1H-indol-3-yl)methylamine] | 33.9 | 54.2
– | – | NCCc1c[nH]c2ccc(O)cc12 [Serotonin] | 347 | 385
– | – | NCCc1c[nH]c2ccccc12 [Tryptamine] | 60.6 | 59.2
